The values that follow are results of earlier work, collected in US11419835B2, “Method of treatment and prevention of bacterial vaginosis” (EVOFEM, INC., priority 2016, dated 2022).

Structures are written as SMILES.

This data set has as its system HIV. The conditions noted are these: compared with D or racemic lactic acid.

For the molecule `C[C@H](O)C(=O)O` [L-lactic acid, L-(+)-lactic acid], the “potency in inactivating HIV” value is on record as “more potent in inactivating HIV than D or racemic lactic acid”.
